Measured values from publication PMC8596843, “Platinum Cyclooctadiene Complexes with Activity against Gram‐positive Bacteria” (Chemmedchem, 2021).

Experiments:
[1] = tested on: human red blood cells; experiment: Haemolysis assay; type: cell-based
Protocol: (§1) As part of the CO‐ADD screening, all compounds that show any activity against a microbial strain are evaluated for their cytotoxicity against human embryonic kidney cells (HEK‐293) and for haemolysis against human red blood cells. None of the compounds tested for cytotoxicity (Pt1‐9 and Pd1) caused any significant cell death up to concentrations of 100 μM. […] We have also observed higher IC50 values for the methylated complexes Pt3 and Pt4 against HeLa cells in previous work.[16]
(§2) The resultant mid-log phase cultures were diluted
(§3) Gram-negative and Gram-positive bacteria, respectively.
(§4) final concentration range of 0.8 – 100 µM.
(§5) inhibitors as positive control.
(§6) Tamoxifen (Sigma T5648) was used
(§7) as internal control on each plate.
in a Neubauer haemocytometer.
incubated for 1 h at 37 °C, without shaking.
HC10 and HC50 (concentration at which 10%
for top, bottom and slope using Prism 8. […]

[2] = tested on: Staphylococcus aureus ATCC 43300 (MRSA); experiment: microbe, parasite or virus in culture; type: cell-based
Protocol: (§8) All compounds submitted to CO‐ADD are initially screened against five bacterial strains (Staphylococcus aureus (MRSA), E. coli, Klebsiella pneumoniae, Pseudomonas aeruginosa, Acinetobacter baumannii) and two fungal strains (Candida albicans, Cryptococcus neoformans) at a single concentration (32 μg/mL or 20 μM) performed as a high‐throughput primary screening.[[11], [17a]] Any compounds that show significant growth inhibition against any of the tested strains at this step are then evaluated in a dose‐response assay against these same strains. […]
(§9) Smiles: C1C=CCCC(=CC1)C1=CCCC=CCC1.C[Pt]C.C[Pt]C […]
(§10) ATCC strains were sourced from the American Type Culture Collection and NRS strains from NARSA (Network on Antimicrobial Resistance in Staphylococcus aureus) via BEI Resources (www.beiresources.org), with clinical MSSA and MRSA isolates from Prof Graeme Nimmo, Queensland […]
(§11) Health Central Pathology. […]
(§12) Antibacterial minimum inhibitory concentration (MIC) assay
(§13) Compound Assay Plate Preparation: Compounds were dissolved in DMSO at 10mM (CO-ADD screening) or 4 mM (follow up screening) and were plated in a 2-fold dose response from 20 to 0.156 µM or 200 to 0.006 µM respectively, with a maximum of 0.5% or 1% DMSO, final in the assay […]
(§14) plated in a 2-fold dose response from 200 to 0.006 µM, with a maximum of 1 % DMSO, final in the assay concentration. (in-house screening)
(§15) For all the bacterial assays, each strain was cultured in Cation-adjusted Mueller Hinton broth (CAMHB; Bacto Laboratories 212322) at 37 °C overnight. A sample of each culture was then diluted 40-fold in fresh CAMHB and incubated at 37 °C for 1.5–3 h. The resultant mid-log phase cultures were diluted with CAMHB (CFU mL−1 measured by OD600), then added to each well of the compound-containing plates (384-well non-binding surface (NBS) plates; Corning CLS3640), giving a cell density of 5 × 10^5 CFU mL−1 and a total volume of 50 μL. Plates were covered and incubated at 37 °C for 18 h without shaking. Inhibition of bacterial growth was determined measuring absorbance at 600 nm (OD600), using media only as negative control and bacteria without inhibitors as positive control. MIC values were determined as the lowest concentration at which the growth was inhibited at ≥80%. Colistin sulfate (Sigma C4461) and vancomycin HCl (Sigma 861987) were used as internal controls on each plate for Gram-negative and Gram-positive bacteria, respectively. […]

[3] = tested on: B. subtilis ATCC 6051 type strain; experiment: MIC in the presence of human serum (serum reversal); type: cell-based, Bacillus subtilis; conditions: 10% serum
From the text: (§16) To obtain some initial insight into the apparent disparity between in vitro and in vivo results, we repeated the MIC experiments against four selected Gram‐positive strains in the presence of 10 % or 50 % human serum (Table S3). Pt1 and Pt2 maintained some antibacterial activity against B. subtilis in the presence of 10 % serum, but a complete loss of activity was observed against MRSA and GISA (50 % serum), and VRE (10 % serum). […] Systemic administration is therefore unlikely to be a suitable administration route for this class of compounds unless an alternative formulation that can prevent serum binding (e. g. by lipid or nanoparticle encapsulation) can be found. […] Further in vivo studies should therefore focus on more suitable disease models. […]
as §12
(§17) concentration. (in-house screening)
(§18) Bacto Laboratories 212322) at 37 °C overnight.
as §2, §3, §4
(§19) inhibitors as positive control. […]

[4] = tested on: Staphylococcus aureus VRS 1, VRSA (VanA); experiment: Antibacterial MIC assay, Gram-positive panel; type: cell-based; conditions: Table S1 panel; n=4
From the text: (§20) Bis(dimethyl-η4)-((1Z,1'E,5Z,5'E)-(1,1'-bi(cyclooctadiene))diplatinum(II) (Pt14) Smiles: C1C=CCCC(=CC1)C1=CCCC=CCC1.C[Pt]C.C[Pt]C
(§21) InChIKey: PHIWIZAHOBWKFJ-HPCBIOCFSA-N
(§22) Link to selected data that was repeated to approve the identity of the compounds: https://dx.doi.org/10.14272/PHIWIZAHOBWKFJ-HPCBIOCFSA-N.1
as §10, §11, §12, §13, §14, §15

[5] = tested on: Staphylococcus aureus ATCC 25923, MSSA; experiment: Antibacterial MIC assay, Gram-positive panel; type: cell-based; conditions: Table S1 panel; n=4
From the text: as §20, §21, §22, §10, §11, §12, §13, §14, §15

[6] = tested on: Cryptococcus neoformans H99 ATCC 208821; experiment: Antifungal MIC (CO-ADD screening); type: cell-based
Protocol: as §21
(§23) Health Central Pathology. Candida albicans (ATCC 90028, NCCLS 11), Cryptococcus neoformans
as §12, §17, §18

[7] = tested on: Candida albicans ATCC 90028; experiment: Antifungal MIC (CO-ADD screening); type: cell-based
Protocol: as §21, §23, §12, §17, §18

[8] = tested on: E. faecium ATCC 51559 MDR, VRE; experiment: MIC in the presence of human serum (serum reversal); type: cell-based, Enterococcus faecium; conditions: 10% serum
From the text: as §16, §12, §17, §18, §2, §3, §4, §19

[9] = tested on: HEK-293 ATCC CRL-1573 human embryonic kidney cells; type: cell-based
Protocol: as §1, with “work.[16] […]” for “work.[16]”
as §5, §6, §7
in a Neubauer haemocytometer. […]

[10] = tested on: Acinetobacter baumannii ATCC 19606; experiment: Antibacterial MIC assay; type: cell-based; conditions: CO‐ADD screening
Protocol: as §8, §9, §10, §11, §12, §13, §14, §15

[11] = tested on: Escherichia coli ATCC 25922; experiment: Antibacterial MIC assay; type: cell-based; conditions: CO‐ADD screening
Protocol: as §8, §9, §10, §11, §12, §13, §14, §15

[12] = tested on: Pseudomonas aeruginosa ATCC 27853; experiment: Antibacterial MIC assay; type: cell-based; conditions: CO‐ADD screening
Protocol: as §8, §9, §10, §11, §12, §13, §14, §15

[13] = tested on: E. coli lpxC (non‐efficient lipid A production mutant); experiment: MIC against E. coli membrane mutants; type: cell-based, Escherichia coli; conditions: Table S2
Protocol: as §12, §17, §18, §2, §3, §4, §19

[14] = tested on: S. aureus NRS 17 GISA; experiment: MIC in the presence of human serum (serum reversal); type: cell-based, Staphylococcus aureus; conditions: 50% serum
From the text: as §16, §12, §17, §18, §2, §3, §4, §19

[15] = tested on: S. aureus ATCC 43300 MRSA; experiment: as above; type: cell-based, Staphylococcus aureus; conditions: 50% serum
From the text: as §16, §12, §17, §18, §2, §3, §4, §19

[16] = tested on: Klebsiella pneumoniae ATCC 700603 (ESBL SHV‐18)
Protocol: as §8, §9, §10, §11, §12, §13, §14, §15

[17] = tested on: Enterococcus faecalis ATCC 29212, control strain; experiment: Antibacterial MIC assay, Gram-positive panel; type: cell-based; conditions: Table S1 panel; n=4
Protocol: as §9, §10, §11, §12, §13, §14, §15

[18] = tested on: Enterococcus faecium ATCC 51559, MDR, VRE (VanA); experiment: Antibacterial MIC assay, Gram-positive panel; type: cell-based; conditions: Table S1 panel; n=2
Protocol: as §9, §10, §11, §12, §13, §14, §15

[19] = tested on: Staphylococcus epidermidis NRS 60, VISE; experiment: Antibacterial MIC assay, Gram-positive panel; type: cell-based; conditions: Table S1 panel; n=4
Protocol: as §9, §10, §11, §12, §13, §14, §15

[20] = tested on: Bacillus subtilis ATCC 6051, type strain; experiment: Antibacterial MIC assay, Gram-positive panel; type: cell-based; conditions: Table S1 panel; n=2
Protocol: as §9, §10, §11, §12, §13, §14, §15

[21] = tested on: Enterococcus faecium Clinical Isolate, VRE (VanA); experiment: Antibacterial MIC assay, Gram-positive panel; type: cell-based; conditions: Table S1 panel; n=4
Protocol: as §9, §10, §11, §12, §13, §14, §15

[22] = tested on: Enterococcus faecium ATCC 35667, type strain; experiment: Antibacterial MIC assay, Gram-positive panel; type: cell-based; conditions: Table S1 panel; n=4
Protocol: as §9, §10, §11, §12, §13, §14, §15

[23] = tested on: Staphylococcus epidermidis ATCC 14990, type strain; experiment: Antibacterial MIC assay, Gram-positive panel; type: cell-based; conditions: Table S1 panel; n=4
Protocol: as §9, §10, §11, §12, §13, §14, §15

[24] = tested on: Staphylococcus aureus NRS 17, GISA; experiment: Antibacterial MIC assay, Gram-positive panel; type: cell-based; conditions: Table S1 panel; n=2
Protocol: as §9, §10, §11, §12, §13, §14, §15

## CC(C)C([O][Pt][Cl])/C1=C/CC/C=C\CC1 (centres unmarked) [Pt8]
[1]; concentration inducing 10 % haemolysis
  Haemolysis HC10: >100 µM
[1]; concentration inducing 50 % haemolysis
  Haemolysis HC50: >100 µM
[2]; CO‐ADD screening
  MIC Sa: >20 µM
[2]; Table S1 panel, n=2
  MIC: 3.12 µM
[3]
  MIC in the presence of human serum: 200 µM
[4]
  MIC: 12.5 µM
[5]
  MIC: 25 µM
[6]
  MIC Cn: 1.25 µM
[7]
  MIC Ca: 10 µM
[8]
  MIC in the presence of human serum: > 200 µM
[9]
  CC50: > 100 µM
[10]
  MIC Ab: >20 µM
[11]
  MIC Ec: >20 µM
[12]
  MIC Pa: >20 µM
[13]
  MIC E. coli lpxC: > 200 µM
[14]
  MIC in the presence of human serum: > 200 µM
[15]
  MIC in the presence of human serum: > 200 µM
[16]
  MIC Kp: >20 µM
[17]
  MIC: 100 µM
[18]
  MIC: 50 µM
[19]
  MIC: 25 µM
[20]
  MIC: 50 µM
[21]
  MIC: 100 µM
[22]
  MIC: 100 µM
[23]
  MIC: 6.25 µM
[24]
  MIC: 50 µM
